What was measured:
[1] = Rodent Feeding Model: Measurement of Food Intake in Food-Deprived Rats; assay type: in vivo, Male Long-Evans rats; details: 30 mg/kg i.p., N = 8; for Food Consumption (% chg.) 0-2 hrs / Food Consumption (% chg.) 0-6 hrs / Food Consumption (% chg.) 2-6 hrs: vs vehicle, negative = reduction
Protocol: Male Long-Evans rats (180-200 grams) are housed individually and are maintained on a once-a-day feeding schedule (i.e. 10 a.m. until 4 p.m.) for five days following quarantine to allow the animals to acclimate to feeding on powdered chow (#5002 PMI Certified Rodent Meal) during the allotted time. The chow is made available in an open jar, anchored in the cage by a wire, with a metal follower covering the food to minimize spillage. Water is available ad-libitum.
Animals are fasted for 18 hours prior to testing. At the end of the fasting period, animals are administered either compounds of the invention or vehicle. Vehicle and test compounds are administered either orally (5 mL/kg) 60 minutes prior to the experiment, or 30 minutes prior when given subcutaneously (1 mL/kg) or intraperitoneally (1 mL/kg). Compounds of the invention are administered orally as a suspension in aqueous 0.5% methylcellulose-0.4% Tween 80, or intraperitoneally as a solution or suspension in PEG 200; compound concentrations typically range from 1 mg/kg to 100 mg/kg, preferably from 10-30 mg/kg. Food intake is measured at 2, 4, and 6 hours after administration by weighing the special jar containing the food before the experiment and at the specified times. Upon completion of the experiment, all animals are given a one-week washout period before retesting.
Percent reduction of food consumption is calculated subtracting the grams of food consumed by the treated group from the grams of food consumed by the control group divided by the grams of food consumed by the control group, multiplied by 100. [formula] A negative value indicates a reduction in food consumption and a positive value indicates an increase in food consumption.

[2] = cited from earlier work
[3] = test system: classic Y1 receptor; details: cited from earlier work
[4] = icv or into the amygdala; cited from earlier work
[5] = animal models of learning; cited from earlier work
[6] = test system: forskolin-stimulated cAMP production/levels in a neuroblastoma cell line; details: cited from earlier work
[7] = biological target: T1, human neuropeptide Y5 receptor (Homo sapiens, UniProt Q15761); experiment: NPY5 HTS Centrifugation Assay: competition with 125I-PYY for binding to NPY5-transfected HEK293 cell membranes; details: 80 pM 125I-PYY, 1 hr room temperature, read-out: % Inh @ 3 uM (% Inhibition of ^125 I-PYY Binding)
T1 construct: expressed in transfected cells
T1 sequence (Q15761 1-445): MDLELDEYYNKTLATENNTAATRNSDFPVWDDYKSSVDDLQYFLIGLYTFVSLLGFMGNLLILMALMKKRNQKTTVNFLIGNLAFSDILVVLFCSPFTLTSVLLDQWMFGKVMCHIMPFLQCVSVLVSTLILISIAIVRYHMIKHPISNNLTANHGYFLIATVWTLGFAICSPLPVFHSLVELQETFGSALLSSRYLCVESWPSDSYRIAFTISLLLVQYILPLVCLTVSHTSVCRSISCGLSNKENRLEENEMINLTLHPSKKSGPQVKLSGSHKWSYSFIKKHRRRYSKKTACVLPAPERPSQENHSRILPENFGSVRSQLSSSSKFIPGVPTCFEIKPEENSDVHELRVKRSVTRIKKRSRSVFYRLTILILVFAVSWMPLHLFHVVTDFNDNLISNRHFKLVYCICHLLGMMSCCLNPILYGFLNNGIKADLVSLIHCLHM
Protocol: The compounds described in this invention were evaluated for binding to the human neuropeptide Y5 receptor.
The human NPY5 receptor cDNA (Genbank Accession number U66275) was inserted into the vector pClneo (Invitrogen) and transfected into human embryonic kidney cells (HEK-293) via Calcium phosphate method (Cullen 1987). Stably transfected cells were selected with G-418 (600 ug/mL). Stably transfected cells served as the source for the membranes for the NPY5 receptor binding assay.
NPY5-transfected HEK293 cells were grown to confluence in 150 cm^2 culture dishes. Cells were washed once with phosphate-buffered saline (Gibco Cat#14040-133). Cells were then incubated in phosphate-buffered saline without Calcium and without Magnesium, supplemented with 2 mM EDTA. Cells were incubated for 10 minutes at room temperature and the cells were collected by repetitive pipeting. Cells were formed into pellets and then frozen at -80 until needed. Frozen pellets were homogenized with a polytron at full speed for 12 seconds in a homogenization buffer (20 mM Tris HCl, 5 mM EDTA, pH 7.4). Homogenates were centrifuged for 5 minutes at 4C at 200 g. Supernatants were transferred to corex tubes and centrifuged for 25 minutes at 28,000 g. Pellets were re-suspended in Binding (20 mM HEPES, 10 mM NaCl, 0.22 mM KH2 PO4, 1.3 mM CaCl2, 0.8 mM MgSO4, pH 7.4). Membranes were kept on ice until use.
A competition binding assay, known to those skilled in the art, was used in which aminotetralins (I) compete with ^125 I-PYY for binding to cell membranes. In simple terms, the less ^125 I-PYY bound to the membranes implies that a compound is a good inhibitor (competitor). Bound ^125 I-PYY is determined by centrifugation of membranes, aspirating supernatant, washing away residual ^125 I-PYY and subsequently counting the bound sample in a g-counter.
Compounds to be tested were prepared as 10× stocks in binding buffer and added first to assay tubes (RIA vials, Sarstedt). Twenty (20) μL of each 10× compound stock is pipeted into vials and 80 μL of ^125 I-PYY (NEN catalog number NEX240), which has been diluted to a concentration of 200 pM in 0.25% BSA in binding buffer, is added to the compound tubes (final concentration of ^125 I-PYY is 80 pM). To each tube is added 100 μL of membranes and the mixture is agitated by pipeting 2 times. Samples are incubated for 1 hr at room temperature. Aluminum cast plates (Sarstedt) containing the vials are then centrifuged 10 minutes at 3200 rpm in a Sorvall RT6000. Supernatant is then aspirated. To each vial 400 μL PBS is added and this is then aspirated again. Vials are then put in carrier polypropylene 12×75 tube and counted in gamma counter (Packard). Non-specific binding is determined in the presence of 300 nM NPY. Percent inhibition of ^125 I-PYY binding is calculated by subtracting non-specific binding from the test samples (compound (I)), taking these counts and dividing by total binding, and multiplying by 100. Inhibitory concentration values (IC50) of compounds that show appreciable inhibition of ^125 I-PYY binding are calculated by obtaining percent inhibition of ^125 I-PYY binding values at different concentrations of the test compound, and using a graphing program such as GraphPad Prism (San Diego, Calif.) to calculate the concentration of test compound that inhibits fifty-percent of ^125 I-PYY binding (Table 4). These operations are known to those skilled in the art.

Compound: COc1ccc2c(c1)CCC(NC[C@H]1CC[C@H](CNS(=O)(=O)c3ccccc3F)CC1)C2Cc1cccnc1 (relative stereo) [Compound 43]
- Food Consumption (grams) 0-2 hrs [1]: 6.63 g
- Food Consumption (% chg.) 0-2 hrs [1]: -17.1%
- Food Consumption (grams) 0-6 hrs [1]: 15.25 g
- Food Consumption (% chg.) 0-6 hrs [1]: -17.6%
- Food Consumption (grams) 2-6 hrs [1]: 8.63 g
- Food Consumption (% chg.) 2-6 hrs [1]: -17.8%

Compound: COc1ccc2c(c1)CC[C@H](NC[C@H]1CC[C@H](CNS(=O)(=O)c3ccc(OC)c(OC)c3)CC1)[C@@H]2Cc1ccccc1 (relative stereo) [Compound 53]
- Food Consumption (grams) 0-2 hrs [1]: 5.75 g
- Food Consumption (% chg.) 0-2 hrs [1]: -33.3%
- Food Consumption (grams) 0-6 hrs [1]: 11.88 g
- Food Consumption (% chg.) 0-6 hrs [1]: -40.2%
- Food Consumption (grams) 2-6 hrs [1]: 6.13 g
- Food Consumption (% chg.) 2-6 hrs [1]: -45.6%

Compound: NPY2-36: NPY fragment
- feeding ([2]; NPY fragment): potent inducer of feeding
- binding at the classic Y1 receptor [3]: poor binding

Compound: Neuropeptide Y: single peptide protein that consists of thirty-six amino acids containing an amidated C-terminus
- food intake ([2]; as little as one-billionth of a gram injected directly into the CNS, satiated rats): causes satiated rats to overeat
- anxiolytic effects [4]: produces anxiolytic effects
- memory and performance scores [5]: improves memory and performance scores
- forskolin-stimulated cAMP production/levels [6]: inhibits forskolin-stimulated cAMP production/levels

Compound: O=S(=O)(NC[C@H]1CC[C@H](CN[C@H]2CCc3cc(O)ccc3[C@H]2Cc2cccnc2)CC1)c1ccccc1F (relative stereo) [Compound 44, rac-[1α,2α(trans)]-N-[[[[[1,2,3,4-tetrahydro-6-hydroxy-1-(3-pyridinylmethyl)-2-naphthalenyl]amino]methyl]-4-cyclohexyl]methyl]2-fluorobenzenesulfonamide]
- inhibition at 3 µM [7]: 101%
- Food Consumption (grams) 0-2 hrs [1]: 4.75 g
- Food Consumption (% chg.) 0-2 hrs [1]: -40.6%
- Food Consumption (grams) 0-6 hrs [1]: 14.00 g
- Food Consumption (% chg.) 0-6 hrs [1]: -24.3%
- Food Consumption (grams) 2-6 hrs [1]: 9.25 g
- Food Consumption (% chg.) 2-6 hrs [1]: -11.9%

Compound: O=S(=O)(NC[C@H]1CC[C@H](CNC2CCc3cc(F)ccc3C2Cc2cccnc2)CC1)c1ccccc1F (relative stereo) [Compound 111]
- Food Consumption (grams) 0-2 hrs [1]: 5.13 g
- Food Consumption (% chg.) 0-2 hrs [1]: -35.9%
- Food Consumption (grams) 0-6 hrs [1]: 12.63 g
- Food Consumption (% chg.) 0-6 hrs [1]: -31.7%
- Food Consumption (grams) 2-6 hrs [1]: 7.50 g
- Food Consumption (% chg.) 2-6 hrs [1]: -28.6%

Compound: COc1ccc2c(c1)CC[C@H](NC[C@H]1CC[C@H](CNS(=O)(=O)c3ccccc3)CC1)[C@@H]2CCCO (relative stereo) [Compound 40, rac-[1α,2α(trans)]-N-[[[[[1,2,3,4-tetrahydro-6-methoxy-1-(3-hydroxypropyl)-2-naphthalenyl]amino]methyl]-4-cyclohexyl]methyl] benzenesulfonamide]
- inhibition at 3 µM [7]: 91%

Compound: COc1ccc2c(c1)C(Cc1ccccc1)C(NC[C@H]1CC[C@H](CNS(=O)(=O)c3ccccc3)CC1)CC2 (stereo partly drawn) [Compound 79]
- inhibition at 3 µM [7]: 93%

Compound: COc1ccc2c(c1)CCC(NC[C@H]1CC[C@H](CNS(=O)(=O)c3ccc(Cl)cc3Cl)CC1)C2Cc1ccccc1 (stereo partly drawn) [Compound 61]
- inhibition at 3 µM [7]: 94%

Compound: COc1ccc2c(c1)CCC(NC[C@H]1CC[C@H](CNS(=O)(=O)c3ccc(F)cc3)CC1)C2Cc1ccccc1 (relative stereo) [Compound 58]
- inhibition at 3 µM [7]: 91%

Compound: O=S(=O)(NC[C@H]1CC[C@H](CN[C@H]2CCc3cc(F)ccc3[C@H]2Cc2ccccc2)CC1)c1ccccc1F (relative stereo) [Compound 26, rac-[1α,2α(trans)]-N-[[[[[1,2,3,4-tetrahydro-6-fluoro-1-(3-phenylmethyl)-2-naphthalenyl]amino]methyl]-4-cyclohexyl]methyl]2-fluorobenzenesulfonamide]
- inhibition at 3 µM [7]: 107%

Compound: COc1ccc2c(c1)CCC(NC[C@H]1CC[C@H](CNS(=O)(=O)c3ccc4ccccc4c3)CC1)C2Cc1ccc2ccccc2c1 (relative stereo) [Compound 82]
- inhibition at 3 µM [7]: 54%

Compound: O=S(=O)(NCCCCNC1CCc2ccccc2C1Cc1ccccc1)c1ccc2ccccc2c1 (stereo not drawn) [Compound 45]
- inhibition at 3 µM [7]: 58%

Compound: COc1ccc2c(c1)CC[C@H](NC[C@H]1CC[C@H](CNS(=O)(=O)c3cccc4ccccc34)CC1)[C@@H]2Cc1ccccc1 (relative stereo) [Compound 51]
- inhibition at 3 µM [7]: 95%

Compound: COc1ccc2c(c1)CCC(NC[C@H]1CC[C@H](CNS(=O)(=O)c3cc(Cl)cc(Cl)c3)CC1)C2Cc1ccccc1 (relative stereo) [Compound 56]
- inhibition at 3 µM [7]: 73%

Compound: COc1ccc2c(c1)CCC(NC[C@H]1CC[C@H](CNS(=O)(=O)c3ccccc3)CC1)C2Cc1ccccc1C(F)(F)F (stereo partly drawn) [Compound 98]
- inhibition at 3 µM [7]: 30%

Compound: O=[N+]([O-])c1ccccc1S(=O)(=O)NC[C@H]1CC[C@H](CNC2CCc3cc(Cl)ccc3C2Cc2ccccc2)CC1 (stereo partly drawn) [Compound 64]
- inhibition at 3 µM [7]: 93%
